Experimental data as given in patent publication US8088815B2, “Spiroindolinone pyrrolidines” (Hoffman-La Roche Inc., priority 2009, dated 2012).

Target: interaction between p53 and MDM2 proteins (Homo sapiens, UniProt Q00987)
Experiment: HTRF assay of inhibition of the p53-MDM2 interaction (GST-MDM2 / biotinylated p53 peptide)
Format: binding
Conditions: recombinant GST-tagged MDM2 and biotinylated p53 peptide, bsa:0.02%

Chain of interaction between p53 and MDM2 proteins (Q00987 whole entry): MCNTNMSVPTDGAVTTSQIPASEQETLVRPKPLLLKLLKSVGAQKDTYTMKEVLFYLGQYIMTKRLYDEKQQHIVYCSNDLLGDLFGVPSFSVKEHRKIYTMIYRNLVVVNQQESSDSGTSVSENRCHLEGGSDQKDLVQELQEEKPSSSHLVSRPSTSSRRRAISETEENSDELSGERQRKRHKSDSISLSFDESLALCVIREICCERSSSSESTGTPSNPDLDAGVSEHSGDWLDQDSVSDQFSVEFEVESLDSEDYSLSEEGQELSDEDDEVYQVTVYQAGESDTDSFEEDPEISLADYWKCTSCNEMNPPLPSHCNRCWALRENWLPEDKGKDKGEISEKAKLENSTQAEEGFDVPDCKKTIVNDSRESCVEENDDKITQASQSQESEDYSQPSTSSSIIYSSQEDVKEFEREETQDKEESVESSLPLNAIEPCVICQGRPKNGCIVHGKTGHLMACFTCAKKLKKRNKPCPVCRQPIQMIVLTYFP

IC50	Structure (SMILES)
0.014 µM	CC(C)(C)C[C@@H]1N[C@@H](C(=O)Nc2ccc(C#N)cc2)[C@H](c2cccc(Cl)c2F)[C@]12C(=O)Nc1cc(Cl)ccc12 (racemic) [Example 7, rac-(2′S,3′R,4′S,5′R)-6-chloro-4′-(3-chloro-2-fluoro-phenyl)-2′-(2,2-dimethyl-propyl)-2-oxo-1,2-dihydro-spiro[indole-3,3′-pyrrolidine]-5′-carboxylic acid (4-cyano-phenyl)-amide]
0.011 µM	CC(C)(C)C[C@@H]1N[C@@H](C(=O)Nc2ccc(C(N)=O)cc2)[C@H](c2cccc(Cl)c2F)[C@]12C(=O)Nc1cc(Cl)cc(F)c12 (racemic) [Example 73, rac-(2′S,3′R,4′S,5′R)-6-chloro-4′-(3-chloro-2-fluoro-phenyl)-2′-(2,2-dimethyl-propyl)-4-fluoro-2-oxo-1,2-dihydro-spiro[indole-3,3′-pyrrolidine]-5′-carboxylic acid (4-carbamoyl-phenyl)-amide]
0.007 µM	CC(C)(C)C[C@@H]1N[C@@H](C(=O)Nc2ccc(OCCO)cc2)[C@H](c2cccc(Cl)c2F)[C@]12C(=O)Nc1cc(Cl)ccc12 [Example 20, chiral (2′S,3′R,4′S,5′R)-6-chloro-4′-(3-chloro-2-fluoro-phenyl)-2′-(2,2-dimethyl-propyl)-2-oxo-1,2-dihydro-spiro[indole-3,3′-pyrrolidine]-5′-carboxylic acid [4-(2-hydroxy-ethoxy)-phenyl]-amide]
0.004 µM	COc1cc(S(=O)(=O)N2CCOCC2)ccc1NC(=O)[C@@H]1N[C@@H](CC(C)(C)C)[C@@]2(C(=O)Nc3cc(Cl)ccc32)[C@H]1c1cccc(Cl)c1F [Example 154, chiral (2′S,3′R,4′S,5′R)-6-chloro-4′-(3-chloro-2-fluoro-phenyl)-2′-(2,2-dimethyl-propyl)-2-oxo-1,2-dihydro-spiro[indole-3,3′-pyrrolidine]-5′-carboxylic acid [2-methoxy-4-(morpholine-4-sulfonyl)-phenyl]-amide]
0.02 µM	COc1cc(C#N)ccc1NC(=O)[C@@H]1N[C@@H](CC(C)(C)C)[C@@]2(C(=O)Nc3cc(Cl)cc(F)c32)[C@H]1c1cccc(Cl)c1F (racemic) [Example 75, rac-(2′S,3′R,4′S,5′R)-6-chloro-4′-(3-chloro-2-fluoro-phenyl)-2′-(2,2-dimethyl-propyl)-4-fluoro-2-oxo-1,2-dihydro-spiro[indole-3,3′-pyrrolidine]-5′-carboxylic acid (4-cyano-2-methoxy-phenyl)-amide]
0.034 µM	CC(C)(C)C[C@@H]1N[C@@H](C(=O)Nc2ccc(C#N)cc2)[C@H](c2cccc(Cl)c2)[C@]12C(=O)Nc1cc(Cl)ccc12 (racemic) [Example 64, rac-(2′S,3′R,4′R,5′R)-6-chloro-4′-(3-chloro-phenyl)-2′-(2,2-dimethyl-propyl)-2-oxo-1,2-dihydro-spiro[indole-3,3′-pyrrolidine]-5′-carboxylic acid (4-cyano-phenyl)-amide]
0.011 µM	CC(C)(C)C[C@@H]1N[C@@H](C(=O)Nc2ccccc2)[C@H](c2cccc(Cl)c2F)[C@]12C(=O)Nc1cc(Cl)ccc12 [Example 147, chiral (2′S,3′R,4′S,5′R)-6-chloro-4′-(3-chloro-2-fluoro-phenyl)-2′-(2,2-dimethyl-propyl)-2-oxo-1,2-dihydro-spiro[indole-3,3′-pyrrolidine]-5′-carboxylic acid phenylamide]
0.006 µM	CC(C)(C)C[C@@H]1N[C@@H](C(=O)Nc2ccc(C(N)=O)cc2)[C@H](c2cccc(Cl)c2F)[C@]12C(=O)Nc1cc(Cl)cc(F)c12 [Example 74, chiral (2′S,3′R,4′S,5′R)-6-chloro-4′-(3-chloro-2-fluoro-phenyl)-2′-(2,2-dimethyl-propyl)-4-fluoro-2-oxo-1,2-dihydro-spiro[indole-3,3′-pyrrolidine]-5′-carboxylic acid (4-carbamoyl-phenyl)-amide]
0.018 µM	CC(C)(C)C[C@@H]1N[C@@H](C(=O)Nc2ccc(C(N)=O)cc2)[C@H](c2cccc(Br)c2F)[C@]12C(=O)Nc1cc(Cl)ccc12 (racemic) [Example 99, rac-(2′S,3′R,4′S,5′R)-4′-(3-bromo-2-fluoro-phenyl)-6-chloro-2′-(2,2-dimethyl-propyl)-2-oxo-1,2-dihydro-spiro[indole-3,3′-pyrrolidine]-5′-carboxylic acid (4-carbamoyl-phenyl)-amide]
0.013 µM	CC(C)(C)C[C@@H]1N[C@@H](C(=O)Nc2ccc(C(N)=O)cc2F)[C@H](c2cccc(Cl)c2F)[C@]12C(=O)Nc1cc(Cl)cc(F)c12 (racemic) [Example 79, rac-(2′S,3′R,4′S,5′R)-6-chloro-4′-(3-chloro-2-fluoro-phenyl)-2′-(2,2-dimethyl-propyl)-4-fluoro-2-oxo-1,2-dihydro-spiro[indole-3,3′-pyrrolidine]-5′-carboxylic acid (4-carbamoyl-2-fluoro-phenyl)-amide]
0.013 µM	CC(C)(C)C[C@@H]1N[C@@H](C(=O)Nc2ccn(CC(C)(C)O)n2)[C@H](c2cccc(Cl)c2F)[C@]12C(=O)Nc1cc(Cl)ccc12 (racemic) [Example 55, rac-(2′S,3′R,4′S,5′R)-6-chloro-4′-(3-chloro-2-fluoro-phenyl)-2′-(2,2-dimethyl-propyl)-2-oxo-1,2-dihydro-spiro[indole-3,3′-pyrrolidine]-5′-carboxylic acid [1-(2-hydroxy-2-methyl-propyl)-1H-pyrazol-3-yl]-amide trifluoroacetic acid]
0.012 µM	CC(=O)OCC(C)(C)C[C@@H]1N[C@@H](C(=O)Nc2ccc(C#N)cc2)[C@H](c2cccc(Cl)c2F)[C@]12C(=O)Nc1cc(Cl)ccc12 (racemic) [Example 104, acetic acid rac-3-[(2′S,3′R,4′S,5′R)-6-chloro-4′-(3-chloro-2-fluoro-phenyl)-5′-(4-cyano-phenylcarbamoyl)-2-oxo-1,2-dihydro-spiro[indole-3,3′-pyrrolidin]-2′-yl]-2,2-dimethyl-propyl ester]
